Like-named read-outs stand apart in the source and are kept apart here.
Legend:
MCF-7 = test: MTT cytotoxicity / MDR reversal; assay type: cell-based, human; conditions: for fold-reversal: no FG020326 (reference)
SW1573/2R120 (LRP) = test: MTT cytotoxicity / MDR reversal; assay type: cell-based, human
MCF-7/adr (ABCB1) = test: MTT cytotoxicity / MDR reversal; assay type: cell-based, human; conditions: for IC50: Homo sapiens, NCI/ADR-RES, read-out: IC50 ± SD; for fold-reversal: MCF-7/adr cells, drug alone, no FG020326 (reference)
KBv200 (ABCB1) = test: MTT cytotoxicity / MDR reversal; assay type: cell-based, human; conditions: for IC50: Homo sapiens, KBv200, read-out: IC50 ± SD; for fold-reversal: KBv200 cells, drug alone, no FG020326 (reference)
KB = test: MTT cytotoxicity / MDR reversal; assay type: cell-based, human; conditions: for IC50: Homo sapiens, KB, read-out: IC50 ± SD; for fold-reversal: KB cells, drug alone, no FG020326 (reference)
SW1573 = test: MTT cytotoxicity / MDR reversal; assay type: cell-based, human
KBv200 cell xenografts = test: MDR human carcinoma xenograft model; assay type: in vivo, athymic nude mice
NIH3T3 = test: MTT cytotoxicity / MDR reversal; assay type: cell-based, murine
KB-CV60 (ABCC1) = test: MTT cytotoxicity / MDR reversal; assay type: cell-based, human
KB-3-1 = test: MTT cytotoxicity / MDR reversal; assay type: cell-based, human
NIH3T3/MRP-4-2 (ABCC4) = test: MTT cytotoxicity / MDR reversal; assay type: cell-based, murine
[1] = Paclitaxel plasma levels / pharmacokinetics in mice; assay type: in vivo, NIH mice; conditions: for AUC(0-t): AUC0→ 12, paclitaxel 18 mg/kg i.v.
S1 = test: MTT cytotoxicity / MDR reversal; assay type: cell-based
S1-M1-80 (ABCG2) = test: MTT cytotoxicity / MDR reversal; assay type: cell-based
[2] = Homo sapiens, MCF7, read-out: IC50 ± SD
[3] = Homo sapiens, SW1573, read-out: IC50 ± SD
[4] = VCR experiment, VCR 0.2 mg/kg i.p. q2d×6, FG020326 100 mg/kg p.o. q2d×6
[5] = Mus musculus, NIH3T3, read-out: IC50 ± SD
[6] = paclitaxel experiment, paclitaxel 18 mg/kg i.p. q5d×3, FG020326 100 mg/kg p.o.

Structure (SMILES): COc1cccc2c1C(=O)c1c(O)c3c(c(O)c1C2=O)C[C@@](O)(C(=O)CO)C[C@@H]3O[C@H]1C[C@H](N)[C@H](O)[C@H](C)O1 [Doxorubicin, doxorubicin, reference compound]
- IC50 (MCF-7; [2]): 81 ± 10 nM
- fold-reversal (MCF-7; MCF-7 cells, drug alone): (1.0) fold
- IC50 (SW1573/2R120 (LRP); [3]): 1540 ± 279 nM
- fold-reversal (SW1573/2R120 (LRP); SW1573/2R120 cells, drug alone, no FG020326 (reference)): (1.0) fold
- IC50 (MCF-7/adr (ABCB1)): 14300 ± 1420 nM
- fold-reversal (MCF-7/adr (ABCB1)): (1.0) fold
- IC50 (KBv200 (ABCB1)): 979 ± 123 nM
- fold-reversal (KBv200 (ABCB1)): (1.0) fold
- IC50 (KB): 20 ± 10 nM
- fold-reversal (KB): (1.0) fold
- IC50 (SW1573; [3]): 116 ± 24 nM
- fold-reversal (SW1573; SW1573 cells, drug alone, no FG020326 (reference)): (1.0) fold

Structure (SMILES): CC[C@]1(O)C[C@H]2CN(CCc3c([nH]c4ccccc34)[C@@](C(=O)OC)(c3cc4c(cc3OC)N(C=O)[C@H]3[C@@](O)(C(=O)OC)[C@H](OC(C)=O)[C@]5(CC)C=CCN6CC[C@]43[C@@H]65)C2)C1 [Vincristine, vincristine]
- Post-experiment Weight (body weight) (KBv200 cell xenografts; [4]): 25.6 ± 1.9 g
- Weight of tumor (KBv200 cell xenografts; [4]): 2.92 ± 0.94 g
- IC50 (MCF-7; [2]): 59 ± 9 nM
- fold-reversal (MCF-7; MCF-7 cells, drug alone): (1.0) fold
- IC50 (MCF-7/adr (ABCB1)): 4020 ± 656 nM
- fold-reversal (MCF-7/adr (ABCB1)): (1.0) fold
- IC50 (NIH3T3; [5]): 324 ± 24 nM
- fold-reversal (NIH3T3; NIH3T3 cells, drug alone, no FG020326 (reference)): (1.0) fold
- IC50 (KB-CV60 (ABCC1); Homo sapiens, KB-CV60, read-out: IC50 ± SD): 88600 ± 8280 nM
- fold-reversal (KB-CV60 (ABCC1); KB-CV60 cells, drug alone, no FG020326 (reference)): (1.0) fold
- IC50 (KBv200 (ABCB1)): 1320 ± 256 nM
- fold-reversal (KBv200 (ABCB1)): (1.0) fold
- IC50 (KB-3-1; Homo sapiens, KB 3-1, read-out: IC50 ± SD): 7260 ± 724 nM
- fold-reversal (KB-3-1; KB-3-1 cells, drug alone, no FG020326 (reference)): (1.0) fold
- IC50 (NIH3T3/MRP-4-2 (ABCC4); [5]): 7250 ± 779 nM
- fold-reversal (NIH3T3/MRP-4-2 (ABCC4); NIH3T3/MRP-4-2 cells, drug alone, no FG020326 (reference)): (1.0) fold
- IC50 (KB): 28 ± 9 nM
- fold-reversal (KB): (1.0) fold

Structure (SMILES): N.N.[Cl][Pt][Cl] [Cisplatin, cisplatin, reference compound]
- IC50 (MCF-7; read-out: IC50 ± SD, MCF-7 cells, drug alone, no FG020326): 3550 ± 213 nM

Structure (SMILES): CC(=O)O[C@H]1C(=O)[C@@]2(C)[C@H]([C@H](OC(=O)c3ccccc3)[C@]3(O)C[C@H](OC(=O)[C@H](O)[C@@H](NC(=O)c4ccccc4)c4ccccc4)C(C)=C1C3(C)C)[C@]1(OC(C)=O)CO[C@@H]1C[C@@H]2O [Paclitaxel]
- Growth Inhibition (KBv200 cell xenografts; [6]): 8.1%
- Post-experiment Weight (body weight) (KBv200 cell xenografts; [6]): 24.4 ± 2.6 g
- Weight of tumor (KBv200 cell xenografts; [6]): 2.06 ± 1.06 g
- IC50 (MCF-7; [2]): 6.91 ± 0.903 nM
- fold-reversal (MCF-7; MCF-7 cells, drug alone): (1.0) fold
- IC50 (MCF-7/adr (ABCB1)): 340 ± 38.7 nM
- fold-reversal (MCF-7/adr (ABCB1)): (1.0) fold
- AUC(0-t) ([1]; both, NIH, mouse, plasma, iv, 18 mg/kg, with FG020326 100 mg/kg p.o.): 69400 ± 2260 ng·h/mL
- AUC(0-t) ([1]; both, NIH, mouse, plasma, iv, 18 mg/kg, without FG020326): 73600 ± 5580 ng·h/mL
- AUC(0-inf) ([1]; both, NIH, mouse, plasma, iv, 18 mg/kg, AUC0→ ∞, paclitaxel 18 mg/kg i.v., without FG020326): 73700 ± 5570 ng·h/mL
- clearance ([1]; both, NIH, mouse, plasma, iv, 18 mg/kg, CL, paclitaxel 18 mg/kg i.v., without FG020326): 0.0888 mL/min
- MRT ([1]; both, NIH, mouse, plasma, iv, 18 mg/kg, MRT, paclitaxel 18 mg/kg i.v., without FG020326): 1.54 ± 0.02 h
- half-life ([1]; both, NIH, mouse, plasma, iv, 18 mg/kg, T1/2β, paclitaxel 18 mg/kg i.v., with FG020326 100 mg/kg p.o.): 1.42 ± 0.08 h
- Vd ([1]; both, NIH, mouse, plasma, iv, 18 mg/kg, Vd, paclitaxel 18 mg/kg i.v., without FG020326): 0.0124 ± 0.0011 L
- T1/2α ([1]; paclitaxel 18 mg/kg i.v., without FG020326): 0.55 ± 0.04 h
- IC50 (KBv200 (ABCB1)): 48.3 ± 4.12 nM
- fold-reversal (KBv200 (ABCB1)): (1.0) fold
- IC50 (KB): 1.38 ± 0.148 nM
- fold-reversal (KB): (1.0) fold

Structure (SMILES): CC[C@@]1(O)C(=O)OCc2c1cc1n(c2=O)Cc2cc3c(CN(C)C)c(O)ccc3nc2-1 [Topotecan, topotecan]
- fold-reversal (S1; S1 cells, drug alone, no FG020326 (reference)): (1.0) fold
- IC50 (S1; read-out: IC50 ± SD): 84 ± 24 nM
- IC50 (S1-M1-80 (ABCG2); Homo sapiens, S1-M1-80, read-out: IC50 ± SD): 12000 ± 1280 nM
- fold-reversal (S1-M1-80 (ABCG2); S1-M1-80 cells, drug alone, no FG020326 (reference)): (1.0) fold
- fold resistance (S1-M1-80 (ABCG2); S1-M1-80 compared with S1 cells): 143.2 fold
